According to patent US6051417A, “Prostate cancer drug screening using hKLK2 enhancer” (Calydon, Inc., priority 1997, dated 2000):
Read-outs that look alike come from different tables or passages of the source.

How the values were obtained:
[1] = test system: PSE-Luc/LNCaP cell line CN1013; assay: Stably transfected PSE-Luc/LNCaP cell line CN1013 (and subclone CN1013.7), luciferase assay; details: for inhibition of luciferase expression after induction with 1 nM R1881: CN1013, all anti-androgen concentrations examined; for concentration, relative to R1881, giving luciferase expression levels similar to R1881 / luciferase expression at physiological concentrations: CN1013, anti-androgen alone
[2] = test system: PSE-Luc (PSA enhancer/promoter-luciferase) in LNCaP cells; assay: Transient transfection of LNCaP cells with PSE-Luc, luciferase assay
[3] = Metabolism of dihydrotestosterone in CN1013 cell line (Testosterone ELISA); details: human, cn1013 cells
CN1013 cells = assay: as above
[4] = test system: hKLK2 promoter/enhancer-luciferase constructs in 293 cells; assay: hKLK2 promoter/enhancer-driven luciferase expression in transfected 293 cells; assay type: cell-based, human; details: 1 nM R1881
Procedure: (§1) Knowing that the PSA enhancer is tissue specific, a series of experiments was conducted to determine if the same was true for the hKLK2 enhancer. In the first experiment, LNCaP cells (a PSA-producing prostate cancer cell line) and 293s (a human embryonic kidney cell line) were transfected with CN299 or CN322 (Example 2). Half of the dishes were supplemented with 1 nM R1881, and the cells were harvested 48 hours post transfection. […] The results of this experiment again support the conclusion that the hKLK2 enhancer is androgen inducible.

[5] = test system: CMV-Luc/LNCaP stable cell line; assay: CMV-Luc/LNCaP stable cell line luciferase expression (control); assay type: cell-based, human; details: 10-1000 nM androgen
Procedure: CMV-Luc/LNCaP Cell Line. Transfections of the control plasmid, CMV-Luc, into LNCaP cells were done in the same fashion as for PSE-Luc. The stable cell line CN1006, containing CMV-Luc, was obtained by selection with G418. The luciferase assay was performed as described above.
Luciferase Expression of CMV-Luc/LNCaP Stable Cell Line. LNCaP clones containing the CMV-Luc gene were screened for stable expression of the luciferase gene (i.e. selection of stable cell line). A 3-4 fold increase in expression levels over the uninduced cells was observed upon the addition of 10-1000 nM androgen. A similar androgen stimulation of CMV-Luc expression in transient transfection of LNCaP cells was reported by Pang et al., Hum. Gene Ther. (1995) 6:1417-1426. The slight increase in expression levels was attributed to cell proliferation resulting from increased R1881 addition.

[6] = test system: hKLK2 promoter/enhancer-luciferase constructs in LNCaP cells; assay: hKLK2 promoter/enhancer-driven luciferase expression in transfected LNCaP cells; assay type: cell-based, human; details: for fold induction at 0.001 µM: Homo sapiens, LNCaP, 48 h
Text: To assess the function of the DNA segment containing the enhancer, a series of constructs was generated by inserting the hKLK2 5'-flanking region, shown schematically in FIG. 2, upstream of the luciferase reporter gene. The activity of these fragments was compared with that of CN299, a plasmid with the full hKLK2 promoter (-605 to +33) driving the expression of firefly luciferase. The constructs are as follows:
To determine the effect of the 12 kbp 5'-flanking sequence on promoter activity, two constructs were created: CN299 and CN322. The hKLK2 promoter was cloned upstream of the luc gene to create CN299, as described in Example 2. The entire 12 kbp sequence upstream of the hKLK2 gene (including the promoter) was cloned upstream of the luc gene to create CN322, as described in Example 2. Each construct was then used to transfect LNCaP cells. The media in half of the dishes was supplemented with 0.5 nM R1881. The cells were harvested 48 hours post transfection and the luciferase activity was measured. […] At both R1881 concentrations tested, CN322 had higher activity than CN299.
To determine if the hKLK2 5'-flanking sequence did indeed contain an androgen responsive element, two experiments were conducted. In the first experiment, LNCaP cells were transfected with CN322, the transformants were incubated in medium containing various concentrations of R1881, and 48 hours after transfection, luciferase activity was measured. […] Peak induction of activity was estimated at 1 nM R1881, about 9 fold over the 0 nM activity.
as §1
(§2) This 3.8 kbp fragment was fused upstream of the minimal hKLK2 promoter and then cloned upstream of the luc gene, creating CN355. A variety of cell lines were transfected with CN322 or CN355 by incubating them with the complexes in complete media overnight. The complexes were then aspirated and the media was replaced with stripped serum media. The media in half of the plates was supplemented with 1 nM R1881. The cells were then harvested 48 hours after the removal of the DNA-lipid complexes and tested for luciferase activity.

[7] = test system: CN322 or CN355 in OVCAR, 293, PC3 cells; assay: hKLK2 enhancer/promoter luciferase activity in other cell lines (OVCAR, 293, PC3); assay type: cell-based; details: Homo sapiens, 48 h, read-out: fold induction of activity
Procedure: FIG. 7 is a bar graph depicting the activity of the hKLK2 enhancer/promoter in various cell lines. Various cell lines were transfected with either CN322 or CN355, and, after an overnight incubation in complete medium, were incubated in the presence or absence of R1881. CN355 contains a 3.8 kb fragment from approximately -6200 to approximately -2400 of the hKLK2 enhancer fused to the minimal hKLK2 promoter to control luciferase expression. The cell lines used were: OVCAR, human ovarian adenocarcinoma; 293, transformed human primary embryonal kidney; PC3, human grade IV prostate adenocarcinoma; LNCaP, metastatic human prostate adenocarcinoma.
as §2

## C[C@]12CCC(=O)C[C@@H]1CC[C@@H]1[C@@H]2CC[C@]2(C)[C@@H](O)CC[C@@H]12 [DHT, dihydrotestosterone]
[1]; CN1013
  amounts required for comparable expression relative to R1881: 100-200 fold
[2]
  amount required relative to R1881 to obtain comparable luciferase activity: approximately 100 fold
[2]; DHT 100 and 200 nM
  luciferase expression: 2,500-3,000 RLUs
[3]
  half-life at 0.01 µM: ~1.1 h
CN1013 cells
  time within which metabolism occurs after addition to CN1013 cells: 1 to 4 h
CN1013 cells; medium without cells
  concentration when unexposed to CN1013 cells: remained constant

## CC1=C(/C=C/C(C)=C/C=C/C(C)=C/C(=O)O)C(C)(C)CCC1 [retinoic acid]
[1]; CN1013, non-steroidal ligand unrelated to androgen receptor
  induction or inhibition of CN1013 luciferase: did not result in either induction or inhibition

## CC(=O)O[C@]1(C(C)=O)CC[C@H]2[C@@H]3C=C(Cl)C4=CC(=O)[C@@H]5C[C@@H]5[C@]4(C)[C@H]3CC[C@@]21C [cyproterone acetate]
[1]
  inhibition of luciferase expression after induction with 1 nM R1881: neither inhibition nor induction
  concentration, relative to R1881, giving luciferase expression levels similar to R1881: 100-1,000 fold
  luciferase expression at physiological concentrations: zero or minimal expression

## CC(C)(O)C(=O)Nc1ccc([N+](=O)[O-])c(C(F)(F)F)c1 [hydroxyflutamide]
[1]
  inhibition of luciferase expression after induction with 1 nM R1881: neither inhibition nor induction
  concentration, relative to R1881, giving luciferase expression levels similar to R1881: 100-1,000 fold
  luciferase expression at physiological concentrations: zero or minimal expression

## C[C@]1(O)CC[C@H]2[C@@H]3CCC4=CC(=O)CCC4=C3C=C[C@@]21C [R1881, methyl trienolone]
[4]; CN299, 293 cells
  change of luciferase activity: reduction of activity
[4]; CN322, 293 cells
  change of luciferase activity: reduction of luciferase activity
[1]; CN1013
  concentration giving peak values of induction: 0.1 to 1 nM
[1]; Homo sapiens, LNCaP, read-out: EC50 of luciferase induction
  EC50: 0.075 nM
[1]; subclone CN1013.7
  fold induction of luciferase: 100-200 fold
[5]
  fold increase in expression levels over uninduced cells: 3-4 fold
[2]
  concentration giving peak levels of luciferase expression: 1 nM
[2]; 1-50 nM R1881, 48 hours
  luciferase expression: 3,000-3,500 RLUs
[6]; CN322, LNCaP, 0-10 nM R1881
  response of CN322 luciferase activity to concentration: concentration dependent manner
[6]; CN379, same assay methods, R1881
  fold induction of luciferase activity: approximately 54 fold
[6]; read-out: fold induction of activity vs 0 nM R1881, CN299, LNCaP, 1 nM R1881, 48 hours
  fold induction at 0.001 µM: 2 to 3
[6]; read-out: fold induction of activity vs 0 nM R1881, CN322, LNCaP, 1 nM R1881, 48 hours (Example 5 first experiment, FIG. 6)
  fold induction at 0.001 µM: 17
[6]; read-out: fold induction of activity, CN322, LNCaP, 1 nM R1881, stripped serum media, 48 hours (FIG. 7)
  fold induction at 0.001 µM: ~100
[6]; read-out: fold induction of activity, CN355, LNCaP, 1 nM R1881, stripped serum media, 48 hours (FIG. 7)
  fold induction at 0.001 µM: 35
[6]; read-out: peak induction of luciferase activity over the 0 nM activity, CN322, LNCaP, 1 nM R1881, 48 hours after transfection
  fold induction at 0.001 µM: ~9
[7]
  fold induction at 0.001 µM: 1 to 2
